Reference: patent US20260083865A1, “PROSTATE SPECIFIC MEMBRANE ANTIGEN (PSMA) LIGANDS AND USE THEREOF” (priority 2022, published 2026)
Entries after “also recorded” stand apart in the source; their conditions may differ. Each block holds one compound with its values, some of them ahead of it. Numbered stars: 1 amine (or outer) side, 2 acyl side, 3 side chain; on linkers, the order of the positions; unused ones are H or OH. Bridge positions count the residues as written; N and C are the ends. Square brackets hold non-standard residues; d marks the D form. Peptide text beside a SMILES is read from it. * marks the point of attachment. DOTA = O=C(O)CN1CCN(CC(=O)O)CCN(CC(=O)*)CCN(CC(=O)O)CC1; Phe(4-Cl) = N[C@@H](Cc1ccc(Cl)cc1)C(=O)O; Arg(Me) = CNC(=N)NCCC[C@H](N)C(=O)O; Ethylenediamine = C(CN[*:2])N[*:1]; X1 = O=C(CC1CCN([*:1])CC1)[*:2]; Lys(Me) = CNCCCC[C@H](N)C(=O)O; Tle = CC(C)(C)[C@H](N)C(=O)O; Aib = CC(C)(N)C(=O)O

Assays:
[1] = target: T1, PSMA-expressing C4-2 cells (Homo sapiens, UniProt Q04609); experiment: FACS binding assay (competition with 50 nM PSM-0183); details: FACS binding, C4-2 cells, competition with 50 nM PSM-0183; category; read-out: pIC50 [C4-2] CAT (converted)
T1 construct: PSMA-expressing C4-2 cells (ATCC, Cat. No. CRL-3314) were cultured in RPMI-1640; host or cells: C4-2 cells
In short: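 Competition format: fluorescent tracer PSM-0183 (50 nM) displaced from PSMA on C4-2 cells by a test compound titration over 1 h at 4 °C. Bound tracer was quantified as flow-cytometric AF488 median fluorescence after washing. Four-parameter logistic fits of MFI data gave IC50 and pIC50.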

[2] = tested on: PC3-PIP tumor model; design: species or system mice; details: mouse, in vivo
Text: Radioactively labeled compounds can be detected by imaging methods such as SPECT and PET. Furthermore, the data acquired by such techniques can be confirmed by direct measurement of radioactivity contained in the individual organs prepared from an animal injected with a radioactively labeled compound of the disclosure. Thus, the biodistribution (the measurement of radioactivity in individual organs) of a radioactively labeled compound can be determined and analyzed. […] All animal experiments were conducted in compliance with the German animal protection laws. Male swiss or NMRI nude mice (6-8 weeks old, Janvier Labs, France) were inoculated with 5×10^6 PC3-PIP cells in the right shoulder. For selected compounds an additional model was used, here male NMRI nude mice (6-8 weeks old, Janvier Labs, France) were inoculated with 5×10^6 or/1×10^7 C4-2 cells in the right shoulder. When tumors reached an appropriate size, the mice received ˜30 MBq ^111In-labeled compounds of the disclosure (diluted to 100 μL with PBS) administered intravenously via the tail vein. Images were obtained on a NanoSPECT/computed tomography system (Mediso Medical Imaging Systems, Budapest, Hungary) using exemplarily the following acquisition and reconstruction parameters (Table 10). [table] Imaging data were saved as DICOM files and analysed using VivoQuant™ software (Invicro, Boston, USA). In brief, regions of interest (ROIs) were drawn based on computed tomography images for the relevant organs and tissue regions such as heart (estimate of blood pool, bps), kidney, and tumor. The resulting numeric data expressed as a percentage of injected dose per gram of tissue (% ID/g) are presented in FIGS. 3(a)-3(ii) for the PC3-PIP model and FIGS. 4(a)-4(r) for the C4-2 model. Bars show mean % ID/g values of two to three animals per time point. Error bars indicate the value range (minimum and maximum values).

[3] = target: T2, Fc-fusion protein of human PSMA (hPSMA-Fc) (Homo sapiens, UniProt Q04609); experiment: Surface plasmon resonance assay (Biacore T200, single cycle kinetic); format: binding; details: SPR, hPSMA-Fc, single cycle kinetic, 25° C.; category; read-out: pKD CAT (converted)
T2 construct: purchased Acro Biosystems PSA-H5264
In short: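 KD, expressed as pKD, came from 1:1 Langmuir fits of reference- and buffer-blank-subtracted SPR data. The runs were single-cycle kinetics at 25° C in HBST/0.1% DMSO over human PSMA-Fc, captured to ~1000 RU on a peptide-coated CM5 surface and regenerated with 10 mM glycine pH 1.5.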

[4] = tested on: PSMA-expressing ST1273 tumors; experiment: Efficacy study in mice with PSMA-expressing ST1273 tumors (tumor volume); format: in vivo
Text: The efficacy of ^177Lu-PSM-0194 (PSM-0194 labeled with radioactive Lutetium-177) was investigated in the PDX tumor model ST1273. […] The ST1273 PDX model was developed at XenoSTART (San Antonio, Texas, USA) and PSMA expression was confirmed by immunohistochemistry.
ST1273 tumor fragments were transplanted subcutaneously at the right flank of female NMRI nu/nu mice. In brief, the parent animals with ST1273 PDX tumors for transplantation were euthanized by cervical dislocation. The tumors were resected and trimmed to remove the connective tissues. The tumors were put in a Petri dish with PBS and cut with a scalpel into pieces of approximately 5×5×5 mm. Recipient mice were anesthetized (isoflurane, 1-3% in ambient air supplemented with 100% O2) and an incision cut in the skin on the back. Room was made for the tumor between the muscle and skin with forceps. The tumor pieces were dipped in PBS before being placed under the skin with forceps. The incision was closed with a 7 mm wound clip. Another incision was cut in the skin on the back, where a testosterone rod was inserted subcutaneously with forceps (PreclinApps, Testosterone MedRod 75 μg/day, drug release duration 100 days). The incision was closed with non-absorbable prolene 5-0 sutures and animals were chipped for identification and allowed to recover from anesthesia. Tumor growth and animal weight were measured twice a week starting 7 days after inoculation. Tumor size was measured by caliper and the volume was estimated using the following formula 0.52×(length×width^2).
6-7 weeks after inoculation, three mice with ST1273 PDX tumors were dosed with ^177Lu-PSM-0194 and were subjected to SPECT/computed tomography scans. Tumor size measurement was continued for 42 days after dosing. In brief, PSM-0194 was labeled with radioactive Lutetium-177 with a molar activity of 30 MBq/nmol. An activity dose of 30 MBq per mouse was injected intravenously. The mice injected with ^177Lu—PSM-0194 underwent SPECT/computed tomography scans at 4, 24, and 72 hours p.i. to evaluate the distribution of ^177Lu-PSM-0194 in different tissues. Regions of interest (ROI) were drawn based on computed tomography images for the tumor and following organs: heart (estimate of blood), kidney (left), kidney (right), and tail. Uptake of ^177Lu-PSM-0194 (% ID/g, decay-corrected) in the corresponding ROI was determined by quantitative imaging analysis. […] Highest uptake in non-tumor organs was found in the kidneys with a favorable tumor-to-kidney ratio of 3.3-3.4.
The tumor size measurements were continued for 42 days after dosing. The effect of therapy ^177Lu—PSM-0194 on the tumor volume was evaluated for each individual mouse. […] Tumor volume continued declining to a nadir on day 20, with a mean tumor volume (MTV) of 16±16 mm^3 (mean SEM). […] For the calculation of relative volumes, the tumor volumes on the day of dosing (day 0) were set to 100%.

T2 sequence (Q04609 44-750 limits assumed): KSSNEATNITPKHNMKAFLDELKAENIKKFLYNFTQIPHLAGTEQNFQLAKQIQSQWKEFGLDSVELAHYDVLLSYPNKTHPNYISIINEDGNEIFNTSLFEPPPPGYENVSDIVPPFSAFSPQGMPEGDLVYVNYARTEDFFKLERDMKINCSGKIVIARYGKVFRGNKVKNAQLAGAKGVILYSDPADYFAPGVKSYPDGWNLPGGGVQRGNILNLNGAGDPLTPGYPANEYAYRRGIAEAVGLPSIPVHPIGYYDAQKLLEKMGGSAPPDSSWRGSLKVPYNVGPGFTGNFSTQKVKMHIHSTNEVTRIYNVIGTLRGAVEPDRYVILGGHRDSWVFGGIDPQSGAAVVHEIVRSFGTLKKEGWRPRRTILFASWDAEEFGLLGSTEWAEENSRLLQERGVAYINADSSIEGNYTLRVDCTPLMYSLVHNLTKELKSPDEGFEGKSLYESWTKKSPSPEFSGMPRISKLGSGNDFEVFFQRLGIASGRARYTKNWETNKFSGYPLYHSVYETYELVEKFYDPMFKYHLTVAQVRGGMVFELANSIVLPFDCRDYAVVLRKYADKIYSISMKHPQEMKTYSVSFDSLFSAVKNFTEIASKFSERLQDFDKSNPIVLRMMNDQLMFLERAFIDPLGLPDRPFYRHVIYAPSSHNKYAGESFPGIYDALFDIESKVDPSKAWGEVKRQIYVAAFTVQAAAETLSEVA
T1 sequence (Q04609 whole entry): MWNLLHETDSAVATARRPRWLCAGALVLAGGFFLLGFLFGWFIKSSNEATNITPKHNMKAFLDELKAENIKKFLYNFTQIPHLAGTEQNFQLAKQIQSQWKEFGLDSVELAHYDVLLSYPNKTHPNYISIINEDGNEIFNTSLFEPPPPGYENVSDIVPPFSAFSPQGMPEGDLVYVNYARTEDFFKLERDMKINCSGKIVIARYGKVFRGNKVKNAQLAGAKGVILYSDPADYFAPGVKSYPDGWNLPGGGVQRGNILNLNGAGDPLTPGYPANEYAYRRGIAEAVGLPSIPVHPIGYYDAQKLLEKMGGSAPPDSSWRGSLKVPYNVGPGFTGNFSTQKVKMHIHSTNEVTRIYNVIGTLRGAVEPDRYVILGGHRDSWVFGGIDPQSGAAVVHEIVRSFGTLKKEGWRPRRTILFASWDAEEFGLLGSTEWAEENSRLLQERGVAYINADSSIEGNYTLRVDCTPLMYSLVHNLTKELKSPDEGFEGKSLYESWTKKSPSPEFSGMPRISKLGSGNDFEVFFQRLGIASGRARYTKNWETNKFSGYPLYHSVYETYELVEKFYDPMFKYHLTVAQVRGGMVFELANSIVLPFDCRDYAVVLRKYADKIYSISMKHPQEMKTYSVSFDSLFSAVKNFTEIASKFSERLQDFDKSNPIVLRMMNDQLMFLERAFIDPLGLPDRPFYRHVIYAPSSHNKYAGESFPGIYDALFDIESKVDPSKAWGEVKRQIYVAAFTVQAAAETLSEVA

IC50 [1]: < 200 nM
AUC ratio [T/K] [2]: 0.33
Tumor AUC [2]: 170 % ID/g*h
Kd [3]: < 12.6 nM
SMILES: C[C@@H](O)[C@H](NC(=O)CN1CCN(CC(=O)O)CCN(CC(=O)O)CCN(CC(=O)O)CC1)C(=O)NC(C)(C)C(=O)N[C@@H](Cc1ccccc1)C(=O)N[C@H]1CSSC[C@@H](C(=O)N[C@H](C(=O)NCCN)C(C)(C)C)NC(=O)[C@H](CC(N)=O)NC(=O)C(C)(C)NC(=O)[C@H](CCCNC(=N)N)NC(=O)[C@H](CCCCN)NC1=O [PSM-0199, DOTA-Thr-Aib-Phe-[Cys-Lys-Arg-Aib-Asn-Cys]-Tle-en] ({DOTA}-T[Aib]FCKR[Aib]NC[Tle]-Ethylenediamine; disulfide 4-9)

SMILES: CNCCCC[C@@H]1NC(=O)[C@@H](NC(=O)[C@H](Cc2ccc(Cl)cc2)NC(=O)C(C)(C)NC(=O)[C@@H](NC(=O)CC2CCN(C(=O)CN3CCN(CC(=O)O)CCN(CC(=O)O)CCN(CC(=O)O)CC3)CC2)[C@@H](C)O)CSSC[C@@H](C(=O)N[C@H](C(=O)N[C@H](C(N)=O)[C@@H](C)O)C(C)(C)C)NC(=O)[C@H](CC(N)=O)NC(=O)C(C)(C)NC(=O)[C@H](CCCNC(=N)NC)NC1=O [^177Lu-PSM-0194, metal not drawn] ({DOTA}-[X1]T[Aib][Phe(4-Cl)]C[Lys(Me)][Arg(Me)][Aib]NC[Tle]T-NH2; disulfide 5-10)
effect of therapy on the tumor volume ([4]; ST1273 PDX mice, 30 MBq i.v., followed 42 days after dosing): reduction of the tumor volumes; also recorded: strong tumor regression and sustained tumor suppression
start of re-growth of the tumor ([4]; animal M10, 30 MBq i.v.): 23 days
tumor volume ([4]; animal M10, day 42 after dosing, 30 MBq i.v.): 407 mm^3
mean tumor volume (MTV) at nadir ([4]; day 20 after dosing, 30 MBq i.v., three mice, mean SEM): 16±16 mm^3
Tumor volumes ([4]; mouse M9, study day 2): 390 mm^3
Relative tumor volume ([4]; mouse M9, study day 2, day 0 = 100%): 112%
Tumor volumes ([4]; mouse M9, study day 6): 124 mm^3
Relative tumor volume ([4]; mouse M9, study day 6, day 0 = 100%): 36%
Tumor volumes ([4]; mouse M9, study day 9): 65 mm^3
Relative tumor volume ([4]; mouse M9, study day 9, day 0 = 100%): 19%
Tumor volumes ([4]; mouse M9, study day 13): 31 mm^3
Relative tumor volume ([4]; mouse M9, study day 13, day 0 = 100%): 9.0%
Tumor volumes ([4]; mouse M9, study day 16): 43 mm^3
Relative tumor volume ([4]; mouse M9, study day 16, day 0 = 100%): 12%
Tumor volumes ([4]; mouse M9, study day 20): 0 mm^3
Relative tumor volume ([4]; mouse M9, study day 20, day 0 = 100%): 0.0%
Tumor volumes ([4]; mouse M9, study day 23): 0 mm^3
Relative tumor volume ([4]; mouse M9, study day 23, day 0 = 100%): 0.0%
Tumor volumes ([4]; mouse M9, study day 27): 0 mm^3
Relative tumor volume ([4]; mouse M9, study day 27, day 0 = 100%): 0.0%
Tumor volumes ([4]; mouse M9, study day 30): 0 mm^3
Relative tumor volume ([4]; mouse M9, study day 30, day 0 = 100%): 0.0%
Tumor volumes ([4]; mouse M9, study day 34): 0 mm^3
Relative tumor volume ([4]; mouse M9, study day 34, day 0 = 100%): 0.0%
Tumor volumes ([4]; mouse M9, study day 37): 0 mm^3
Relative tumor volume ([4]; mouse M9, study day 37, day 0 = 100%): 0.0%
Tumor volumes ([4]; mouse M9, study day 41): 0 mm^3
Relative tumor volume ([4]; mouse M9, study day 41, day 0 = 100%): 0.0%
Tumor volumes ([4]; mouse M9, study day 42): 0 mm^3
Relative tumor volume ([4]; mouse M9, study day 42, day 0 = 100%): 0.0%
Tumor volumes ([4]; mouse M10, study day 2): 633 mm^3
Relative tumor volume ([4]; mouse M10, study day 2, day 0 = 100%): 134%
Tumor volumes ([4]; mouse M10, study day 6): 372 mm^3
Relative tumor volume ([4]; mouse M10, study day 6, day 0 = 100%): 79%
Tumor volumes ([4]; mouse M10, study day 9): 346 mm^3
Relative tumor volume ([4]; mouse M10, study day 9, day 0 = 100%): 73%
Tumor volumes ([4]; mouse M10, study day 13): 242 mm^3
Relative tumor volume ([4]; mouse M10, study day 13, day 0 = 100%): 51%
Tumor volumes ([4]; mouse M10, study day 16): 94 mm^3
Relative tumor volume ([4]; mouse M10, study day 16, day 0 = 100%): 20%
Tumor volumes ([4]; mouse M10, study day 20): 49 mm^3
Relative tumor volume ([4]; mouse M10, study day 20, day 0 = 100%): 10%
Tumor volumes ([4]; mouse M10, study day 23): 66 mm^3
Relative tumor volume ([4]; mouse M10, study day 23, day 0 = 100%): 14%
Tumor volumes ([4]; mouse M10, study day 27): 113 mm^3
Relative tumor volume ([4]; mouse M10, study day 27, day 0 = 100%): 24%
Tumor volumes ([4]; mouse M10, study day 30): 114 mm^3
Relative tumor volume ([4]; mouse M10, study day 30, day 0 = 100%): 24%
Tumor volumes ([4]; mouse M10, study day 34): 172 mm^3
Relative tumor volume ([4]; mouse M10, study day 34, day 0 = 100%): 36%
Tumor volumes ([4]; mouse M10, study day 37): 289 mm^3
Relative tumor volume ([4]; mouse M10, study day 37, day 0 = 100%): 61%
Tumor volumes ([4]; mouse M10, study day 41): 608 mm^3
Relative tumor volume ([4]; mouse M10, study day 41, day 0 = 100%): 129%
Tumor volumes ([4]; mouse M10, study day 42): 607 mm^3
Relative tumor volume ([4]; mouse M10, study day 42, day 0 = 100%): 129%
Tumor volumes ([4]; mouse M12, study day 2): 476 mm^3
Relative tumor volume ([4]; mouse M12, study day 2, day 0 = 100%): 53%
Tumor volumes ([4]; mouse M12, study day 6): 427 mm^3
Relative tumor volume ([4]; mouse M12, study day 6, day 0 = 100%): 47%
Tumor volumes ([4]; mouse M12, study day 9): 196 mm^3
Relative tumor volume ([4]; mouse M12, study day 9, day 0 = 100%): 23%
Tumor volumes ([4]; mouse M12, study day 13): 82 mm^3
Relative tumor volume ([4]; mouse M12, study day 13, day 0 = 100%): 9.1%
Tumor volumes ([4]; mouse M12, study day 16): 109 mm^3
Relative tumor volume ([4]; mouse M12, study day 16, day 0 = 100%): 12%
Tumor volumes ([4]; mouse M12, study day 20): 0 mm^3
Relative tumor volume ([4]; mouse M12, study day 20, day 0 = 100%): 0.0%
Tumor volumes ([4]; mouse M12, study day 23): 55 mm^3
Relative tumor volume ([4]; mouse M12, study day 23, day 0 = 100%): 6.1%
Tumor volumes ([4]; mouse M12, study day 27): 56 mm^3
Relative tumor volume ([4]; mouse M12, study day 27, day 0 = 100%): 6.2%
Tumor volumes ([4]; mouse M12, study day 30): 58 mm^3
Relative tumor volume ([4]; mouse M12, study day 30, day 0 = 100%): 6.4%
Tumor volumes ([4]; mouse M12, study day 34): 47 mm^3
Relative tumor volume ([4]; mouse M12, study day 34, day 0 = 100%): 5.2%
Tumor volumes ([4]; mouse M12, study day 37): 67 mm^3
Relative tumor volume ([4]; mouse M12, study day 37, day 0 = 100%): 7.4%
Tumor volumes ([4]; mouse M12, study day 41): 74 mm^3
Relative tumor volume ([4]; mouse M12, study day 41, day 0 = 100%): 8.2%
Tumor volumes ([4]; mouse M12, study day 42): 81 mm^3
Relative tumor volume ([4]; mouse M12, study day 42, day 0 = 100%): 9.0%
